Key:
human TNFR-p55 = assay: Solid phase radioligand competition binding assay, E. coli lysates, TNFR-p55; conditions: for Dilution of E. coli Lysate for 50% Inhibition of 125I-TNFα Binding (ID50) TNFR-p55: 10-fold serial dilutions 10^-2 to 10^-7, < = inhibition but below 50% at 1:100, << = no measurable inhibition at 1:100; for ID50 TNFR-p55 / ID50 TNFR-p75: ratio = 1 no receptor selectivity, > 1 TNFR-p55 selectivity, < 1 TNFR-p75 selectivity
Procedure: (§1) After 20 min incubation at room temperature 50 μl of 1M MgCl2, 20 μl of 5 mg/ml DNaseI, 50 μl of 5M NaCl and 50 μl of 10% NP-40 were added and the mixture was further incubated at room temperature for 15 min. 0.5 ml of the lysate clarified by centrifugation at 13'000 rpm for 5 min was subjected to ammonium sulfate precipitation (25%-70% cut). The 70% ammonium sulfat pellet was dissolved in 0.2 ml PBS and analyzed by sodium dodecyl sulfate polyacrylamide gel electrophoresis (SDS-PAGE) to confirm presence and approximate amount of the recombinant proteins.
TNFα was labelled by the Iodogen method (Pierce Chemical Company) to a specific activity of about 10-30 μCi/μg. The volume was 100 μl/well and each lysate dilution was assayed in duplicate or triplicate. After three hours at room temperature the wells were thoroughly washed with PBS and counted in a γ-counter. The results are given in Table 2 for lysates comprising the muteins indicated therein.

human TNFR-p75 = assay: Solid phase radioligand competition binding assay, E. coli lysates, TNFR-p75; conditions: 10-fold serial dilutions 10^-2 to 10^-7, < = inhibition but below 50% at 1:100, << = no measurable inhibition at 1:100
Procedure: as §1, with “10 ml suspensions of E. coli cells transformed and induced as described in Examples I and II were centrifuged at 4'000 rpm for 10 min and resuspended in 0.9 ml of lysis buffer (10 mM Tris-HCl pH 8.0, 5 mM EDTA, 2 mM PMSF, 10 mM benzamidine, 200 units/ml aprotinine and 0.1 mg/ml lysozyme). After” for “After”
96 well microtiter plates were coated with recombinant human […] TNFR-p75-hγ3 and TNFR-p55-hγ3 fusion proteins (extracellular portion of the receptor fused to the Fc part of human IgG3) at a concentration of 0.3 μg/ml and 0.1 μg/ml, respectively, in phosphate buffered saline (PBS, 100 μl/well, overnight at 4° C.) [Loetscher, H. et al. J. Biol. Chem. 266, 18324-18329 (1991); Lesslauer, W. et al. Eur. J. Immunol. 21, 2883-2886 (1991)]. After blocking with blocking buffer (50 mM Tris pH 7.4, 140 mM NaCl, 5 mM EDTA, 0.02% NAN3, 1% defatted milk powder) the microtiter plate was washed with PBS and incubated in blocking buffer containing 0.1% defatted milk powder with 10 ng/ml human wild-type ^125 I-TNFα and various dilutions of E. coli lysates ranging from 10^-2 to 10^-7 (10-fold serial dilutions). TNFα was labelled by the Iodogen method (Pierce Chemical Company) to a specific activity of about 10-30 μCi/μg. The volume was 100 μl/well and each lysate dilution was assayed in duplicate or triplicate. After three hours at room temperature the wells were thoroughly washed with PBS and counted in a γ-counter. The results are given in Table 2 for lysates comprising the muteins indicated therein.

Substance | Dilution of E. coli Lysate for 50% Inhibition of 125I-TNFα Binding (ID50) TNFR-p55 (human TNFR-p55) | ID50 TNFR-p55 / ID50 TNFR-p75 (human TNFR-p55) | Dilution of E. coli Lysate for 50% Inhibition of 125I-TNFα Binding (ID50) TNFR-p75 (human TNFR-p75)
A33D: human TNFα mutein A33D | < 100 fold | > 1 | < 100 fold
A33T: human TNFα mutein A33T | 1,110 fold | 0.9 | 1,250 fold
A145D: human TNFα mutein A145D | 5,000 fold | 0.7 | 6,670 fold
A145G: human TNFα mutein A145G | 2,500 fold | 0.4 | 6,670 fold
A145H: human TNFα mutein A145H | 330 fold | 0.2 | 1,670 fold
A145K: human TNFα mutein A145K | < 100 fold | < 0.05 | 1,820 fold
A145S: human TNFα mutein A145S | 14,290 fold | 0.6 | 25,000 fold
A145T: human TNFα mutein A145T | 5,000 fold | 0.7 | 6,670 fold
A145V: human TNFα mutein A145V | 1,000 fold | 0.5 | 2,000 fold
A145Y: human TNFα mutein A145Y | 1,670 fold | 0.1 | 11,110 fold
D143E: human TNFα mutein D143E | < 100 fold | < 0.3 | 330 fold
D143F: human TNFα mutein D143F | < 100 fold | < 0.4 | 250 fold
D143V-A145S: human TNFα mutein D143V-A145S | < 100 fold | < 0.5 | 200 fold
D143V: human TNFα mutein D143V | < 100 fold | < 1 | < 100 fold
D143W: human TNFα mutein D143W | < 100 fold | < 1 | 100 fold
E146R: human TNFα mutein E146R | 6,670 fold | > 67 | < 100 fold
F144D: human TNFα mutein F144D | 5,000 fold | 15.2 | 330 fold
F144G: human TNFα mutein F144G | 2,500 fold | 1.2 | 2,000 fold
F144L: human TNFα mutein F144L | 5,000 fold | 1 | 5,000 fold
F144R: human TNFα mutein F144R | 2,500 fold | 7.6 | 330 fold
F144W: human TNFα mutein F144W | 400 fold | 2.2 | 180 fold
F144Y: human TNFα mutein F144Y | 2,860 fold | 1 | 2,860 fold
H73Q: human TNFα mutein H73Q | 10,000 fold | 1 | 10,000 fold
H73T: human TNFα mutein H73T | 2,000 fold | 1 | 2,000 fold
I97K: human TNFα mutein I97K | 143 fold | > 1.4 | < 100 fold
I97Y: human TNFα mutein I97Y | 2,500 fold | 7.6 | 330 fold
K65A: human TNFα mutein K65A | 20,000 fold | 0.6 | 33,330 fold
K65W: human TNFα mutein K65W | 500 fold | 0.2 | 3,330 fold
L29S-R32W: human TNFα mutein L29S-R32W | 5,000 fold | > 50 | < 100 fold
L29S-S86T: human TNFα mutein L29S-S86T | 200 fold | > 2 | < 100 fold
